Measurements: the supplement of paper PMC10331698
± gives the standard deviation of the averaged measurements.

Columns and labels:
Experiment in all cases: level (log10 ratio to DMSO vehicle control); higher = higher biomarker level / cell amount than vehicle control
Conditions in all cases: in DMSO
[1] = compound: C=C(C)C(=O)OCCC(F)(F)C(F)(F)C(F)(F)C(F)(F)C(F)(C(F)(F)F)C(F)(F)F [(Perfluoro-5-methylhexyl)ethyl 2-methylprop-2-enoate]
Procedure: (§1)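 BioMAP Diversity Plus panel of 12 human primary cell co-culture systems (3C, 4H, LPS, SAg, BT, BF4T, BE3C, CASM3C, HDF3CGF, KF3CT, MyoF, Mphg). Compounds were added 1 h before stimulation and left for 24 h (MyoF 48 h; BT 72 h for soluble read-outs or 6 d for IgG). Biomarkers were read by ELISA, cytotoxicity by SRB, PBMC viability and proliferation by Alamar Blue. Each well value was divided by the mean of 8 DMSO control wells on the same plate and log10 transformed; duplicate blinded samples were tested at 4 concentrations.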

[2] = compound: COC(=O)CCC(F)(F)C(F)(F)C(F)(F)C(F)(F)F [Methyl 2H,2H,3H,3H-perfluoroheptanoate]
Procedure: as §1

[3] = compound: FC(F)(F)C(F)(F)C(F)(F)C(F)(F)C(F)(F)CCI [1-Iodo-1H,1H,2H,2H-perfluoroheptane]
Procedure: as §1

Heptafluorobutyramide = compound: NC(=O)C(F)(F)C(F)(F)C(F)(F)F [Heptafluorobutyramide]
Procedure: as §1

Perfluoropentanoic acid = compound: O=C(O)C(F)(F)C(F)(F)C(F)(F)C(F)(F)F [Perfluoropentanoic acid]
Procedure: as §1

[4] = compound: O=C(O)C(F)(F)C(F)(F)C(F)(F)OC(F)(C(F)(F)F)C(F)(F)F [Perfluoro-4-isopropoxybutanoic acid]
Procedure: as §1

[5] = compound: O=S(=O)(O)C(F)(F)C(F)(F)C(F)(F)C(F)(F)C(F)(F)C(F)(F)F [Perfluorohexanesulfonic acid]
Procedure: as §1

Row | Test System | level (log10) ([1]; 6700 nM) | level (log10) ([1]; 20000 nM) | level (log10) ([2]; 6700 nM) | level (log10) ([2]; 20000 nM) | level (log10) ([2]; 60000 nM) | level (log10) ([3]; 6700 nM) | level (log10) ([3]; 20000 nM) | level (log10) ([3]; 60000 nM) | level (log10) (Heptafluorobutyramide; 6700 nM) | level (log10) (Heptafluorobutyramide; 20000 nM) | level (log10) (Heptafluorobutyramide; 60000 nM) | level (log10) (Perfluoropentanoic acid; 6700 nM) | level (log10) (Perfluoropentanoic acid; 20000 nM) | level (log10) (Perfluoropentanoic acid; 60000 nM) | level (log10) ([4]; 6700 nM) | level (log10) ([4]; 20000 nM) | level (log10) ([4]; 60000 nM) | level (log10) ([5]; 6700 nM) | level (log10) ([5]; 20000 nM) | level (log10) ([5]; 60000 nM)
1 | CASM3C:SRB | -0.0025 ± 0.005 | -0.0095 ± 0.0035 | 0.003 ± 0.0042 | -0.003 ± 0.013 | -0.0015 ± 0.0035 | 0.0035 ± 0.0021 | -0.0075 ± 0.0078 | -0.024 ± 0.0028 | -0.0135 ± 0.0078 | 0 ± 0.018 | -0.0065 ± 0.0078 | 0.0095 ± 0.0021 | -0.008 ± 0.0014 | 0.004 ± 0.0099 | 0.0015 ± 0.005 | -0.007 ± 0.0071 | 0.0015 ± 0.012 | -0.0045 ± 0.0021 | -0.0015 ± 0.012 | -0.0025 ± 0.016
2 | BE3C:Keratin 8/18 | -0.0185 ± 0.0092 | 0.0005 ± 0.0064 | -0.0225 ± 0.005 | 0.0015 ± 0.015 | -0.0165 ± 0.018 | -0.019 ± 0.02 | -0.009 ± 0.034 | -0.02 ± 0.0071 | -0.007 ± 0.0071 | -0.028 ± 0.0071 | -0.0265 ± 0.0078 | -0.006 ± 0.0057 | -0.011 ± 0.0071 | 0.0035 ± 0.032 | -0.0135 ± 0.0021 | -0.024 ± 0.0028 | 0.009 ± 0.013 | 0.0085 ± 0.0035 | 0.0005 ± 0.0064 | -0.018 ± 0.0085
3 | 3C:CCL2/MCP-1 | -0.0145 ± 0.025 | 0.006 ± 0.044 | 0.011 ± 0.0085 | 0.007 ± 0.013 | 0.0285 ± 0.028 | -0.0135 ± 0.0021 | -0.009 ± 0.0099 | 0.0045 ± 0.025 | -0.011 ± 0.0057 | -0.0125 ± 0.0064 | 0.0065 ± 0.03 | -0.0105 ± 0.00071 | 0.0005 ± 0.0021 | 0.0215 ± 0.019 | -0.005 ± 0.016 | 0.001 ± 0.0071 | 0.0375 ± 0.018 | 0.0055 ± 0.011 | 0.007 ± 0.017 | 0.017 ± 0.031
4 | lMphg:CD69 | -0.064 ± 0.082 | -0.0825 ± 0.08 | -0.016 ± 0.028 | -0.029 ± 0.033 | 0.006 ± 0.017 | -0.0365 ± 0.083 | -0.063 ± 0.072 | -0.0405 ± 0.066 | -0.0155 ± 0.022 | -0.0145 ± 0.044 | 0.0115 ± 0.066 | -0.0315 ± 0.0092 | -0.0525 ± 0.013 | 0.0175 ± 0.077 | -0.044 ± 0.014 | -0.069 ± 0.021 | -0.0455 ± 0.054 | -0.007 ± 0.027 | 0.007 ± 0.04 | -0.036 ± 0.018
5 | lMphg:CCL2/MCP-1 | 0.014 ± 0.0099 | 0.0175 ± 0.037 | -0.004 ± 0.0085 | -0.011 ± 0.011 | 0.003 ± 0.031 | -0.005 ± 0.021 | -0.027 ± 0.016 | -0.037 ± 0.0071 | -0.0035 ± 0.0021 | -0.001 ± 0.038 | 0.0175 ± 0.042 | 0.038 ± 0.0028 | 0.0155 ± 0.03 | 0.0015 ± 0.035 | -0.018 ± 0.0042 | -0.0185 ± 0.0092 | 0.0175 ± 0.0078 | -0.014 ± 0.0085 | 0.006 ± 0.037 | 0.054 ± 0.024
6 | 3C:CD142/Tissue Factor | 0.0205 ± 0.015 | -0.0295 ± 0.046 | -0.0115 ± 0.066 | -0.038 ± 0.021 | -0.0005 ± 0.026 | 0.003 ± 0.016 | 0.0155 ± 0.00071 | 0.0295 ± 0.00071 | -0.002 ± 0.064 | -0.007 ± 0.082 | -0.0235 ± 0.1 | 0.0225 ± 0.011 | 0.018 ± 0.027 | 0.0395 ± 0.056 | -0.015 ± 0.0085 | -0.0185 ± 0.0035 | -0.002 ± 0.0057 | 0.014 ± 0.023 | 0.0105 ± 0.025 | 0.0545 ± 0.011
7 | BE3C:tPA | -0.0245 ± 0.00071 | -0.0325 ± 0.021 | -0.006 ± 0.02 | -0.016 ± 0.014 | 0.0005 ± 0.0078 | -0.0055 ± 0.074 | 0.0465 ± 0.073 | 0.0495 ± 0.047 | -0.027 ± 0.017 | -0.0055 ± 0.0021 | -0.0115 ± 0.028 | -0.059 ± 0.011 | -0.043 ± 0.017 | -0.013 ± 0.064 | -0.0285 ± 0.018 | -0.0385 ± 0.0035 | -0.0025 ± 0.057 | -0.0105 ± 0.0064 | 0.0015 ± 0.0035 | 0.012 ± 0.0014
8 | MyoF:MMP-1 | -0.023 ± 0.0057 | -0.0365 ± 0.074 | -0.009 ± 0.0071 | -0.019 ± 0.011 | 0.0305 ± 0.12 | -0.013 ± 0.038 | -0.0185 ± 0.037 | 0.037 ± 0.011 | -0.0185 ± 0.018 | -0.0105 ± 0.049 | 0.027 ± 0.082 | -0.009 ± 0.02 | -0.0215 ± 0.011 | 0.009 ± 0.071 | -0.0155 ± 0.0092 | 0.0115 ± 0.013 | 0.045 ± 0.051 | -0.029 ± 0.0085 | -0.012 | -0.002 ± 0.0028
9 | HDF3CGF:CXCL10/IP-10 | -0.0005 ± 0.0078 | -0.003 | -0.011 ± 0.0085 | 0.006 ± 0.016 | -0.026 ± 0.0071 | -0.011 ± 0.0099 | -0.053 ± 0.0071 | -0.11 ± 0.023 | 0.007 ± 0.0099 | 0 ± 0.0057 | 0.0035 ± 0.011 | 0 ± 0.014 | -0.011 ± 0.0028 | 0.006 ± 0.0057 | -0.0135 ± 0.0064 | -0.029 ± 0.011 | -0.0615 ± 0.0035 | 0.0035 ± 0.0064 | 0.0015 ± 0.021 | -0.0135 ± 0.012
10 | KF3CT:IL-1alpha | -0.014 ± 0.0028 | -0.0225 ± 0.0035 | -0.0295 ± 0.019 | -0.019 ± 0.018 | -0.0095 ± 0.029 | 0.01 ± 0.016 | 0.009 ± 0.0057 | -0.0295 ± 0.016 | -0.0035 ± 0.0064 | 0.013 ± 0.0057 | -0.0005 ± 0.032 | -0.004 ± 0.017 | 0.004 ± 0.0028 | -0.0115 ± 0.021 | 0.0225 ± 0.019 | 0.0165 ± 0.0035 | 0.014 ± 0.025 | 0.0065 ± 0.054 | -0.014 ± 0.016 | -0.015 ± 0.017
11 | KF3CT:PAI-I | -0.035 ± 0.047 | -0.05 ± 0.018 | -0.01 ± 0.013 | -0.009 ± 0.0042 | -0.0105 ± 0.0092 | -0.007 ± 0.02 | -0.014 ± 0.0071 | -0.0245 ± 0.028 | -0.0145 ± 0.0035 | -0.011 ± 0.0028 | 0.0105 ± 0.012 | 0.0005 ± 0.021 | -0.003 | 0.004 ± 0.0057 | -0.019 ± 0.0028 | -0.0265 ± 0.015 | -0.0125 ± 0.018 | -0.0105 ± 0.012 | -0.0325 ± 0.00071 | -0.0435 ± 0.0021
12 | MyoF:TIMP-1 | -0.031 ± 0.023 | -0.024 ± 0.0057 | -0.0585 ± 0.047 | -0.02 ± 0.035 | 0.01 ± 0.014 | 0.0095 ± 0.0064 | -0.009 ± 0.0028 | -0.038 ± 0.025 | -0.0285 ± 0.054 | -0.0325 ± 0.05 | -0.0435 ± 0.067 | -0.0195 ± 0.023 | -0.043 ± 0.034 | -0.002 ± 0.042 | 0.0135 ± 0.059 | 0.0705 ± 0.083 | 0.0855 ± 0.1 | 0.0215 ± 0.064 | 0.0835 ± 0.053 | 0.099 ± 0.042
13 | KF3CT:MMP-9 | -0.0045 ± 0.037 | -0.027 ± 0.041 | -0.012 ± 0.047 | -0.0145 ± 0.035 | -0.024 ± 0.017 | -0.017 ± 0.011 | -0.0265 ± 0.025 | -0.029 ± 0.021 | 0.002 | -0.0005 ± 0.00071 | 0.0035 ± 0.00071 | -0.0225 ± 0.025 | -0.0205 ± 0.018 | 0.012 ± 0.038 | 0.0055 ± 0.0035 | 0.022 ± 0.02 | 0.078 ± 0.014 | 0.0095 ± 0.0064 | 0.028 ± 0.0014 | 0.027 ± 0.0057
